# Test results from PMC5584945, “Evaluation of robenidine analog NCL195 as a novel broad-spectrum antibacterial agent” (PLoS ONE, 2017).
# Tests used:
# [1] = tested on: MDBK; test: Real-time cell viability, RealTime-Glo MT; format: cell-based, bovine; conditions: 2 or 8 μg/ml, up to 20 h post-treatment
# Description: In order to ensure minimal off target mammalian cell cytotoxicity, we assayed NCL812, NCL195 and NCL219 for in vitro cytotoxicity using a panel of adherent mammalian cell lines: Caco-2 (human colorectal adenocarcinoma cell line), HEL 299 (non-cancerous human lung fibroblast cell line), Hep G2 (human hepatocellular carcinoma cell line), MDBK (normal bovine kidney cell line) and MCF7 (human mammary gland adenocarcinoma cell line). Cell lines were maintained in Dulbecco’s Modified Eagle’s Medium (DMEM; […] After 24 h incubation, media was removed, washed once with medium without antibiotics and fresh medium supplemented with 10% (vol/vol) FBS was added. […] Following exposure for 24 h, WST-1 reagent was added to each well at a final concentration of 10%. […] The IC50 value for each compound against each cell line was determined via non-linear regression (three parameters) using GraphPad Prism v6 software. The robustness of assays was confirmed with selected cell lines (Hep G2 and MDBK) seeded onto a 96–well Microwell Nunclon Delta Surface plate (Thermo Scientific Nunc; Cat No: 136101) at 5 × 10^4 cells per well.
# [2] = tested on: S. pneumoniae D39; test: Membrane potential, DiOC2(3) fluorescence; format: cell-based, Streptococcus pneumoniae; conditions: 16 μg/ml, pre-incubated 5 min; versus untreated and ampicillin
# Method: To further examine the mechanism underlying the perturbation of the cell membrane of S. pneumoniae or S. aureus by the NCL compounds, the membrane potential of the cells was measured by fluorescence spectrometry using (DiOC2(3), essentially as described previously. Briefly, […] cells from an overnight HBA plate were grown in Todd-Hewitt broth supplemented with 1% yeast extract (THY) at 37°C, 5% CO2 until A600 nm = 0.5. […] The cuvette was then placed in a LS 55 Fluorescence Spectrometer (PerkinElmer) set at Ex. 488 nm/Em. 620 nm, with excitation and emission slit widths at 5 nm and 7 nm, respectively). […] All assays were performed at least twice.
# [3] = tested on: vancomycin-resistant enterococci (VRE); test: MIC, broth micro-dilution (CLSI); format: cell-based, enterococci (porcine isolates); conditions: for Fold increase of MIC range in the presence of 10% FBS: 10% FBS versus no FBS; for MIC50 / MIC90 / MIC: Enterococcus, VRE
# [4] = tested on: human red blood cells; test: Haemolysis assay; format: cell-based; conditions: 1 h, 37°C; highest concentration used 128 μg/ml
# Method: This was performed using fresh donor human red blood cells (RBCs), essentially as described previously. Fresh RBCs were washed in PBS three times at 500 × g for 5 min, and then resuspended 1% (w/v) in PBS. […] Thereafter, 198 μL of the 1% RBC solution was added into each well, and the mixture incubated for 1 h at 37°C, with shaking at 100 rpm. Quadruplicate wells containing either 1% Triton X100, or PBS only, served as controls. After incubation, the trays were centrifuged at 1,000 × g for 3 min and 100 μl of supernatant from each well transferred into a new 96-well tray. Absorbance was measured at A450 nm on a Multiskan Ascent 354 Spectrophotometer (Labsystems) and plotted against each dilution. Haemolytic titer was determined as the reciprocal of the dilution at which 50% of erythrocytes were lysed at A450 nm. The experiment was performed twice.
# [5] = tested on: S. aureus Xen29; test: Minimum bactericidal concentration (MBC); format: cell-based; conditions: Staphylococcus aureus, 99.9% colony count reduction
# Method: The tray was covered with Breathe-Easy sealing membrane (Z380059, Sigma-Aldrich) and incubated for 16 h overnight at 35°C in an EnSpire Multimode Plate Reader 2300 (PerkinElmer), with data collected every 20 min and 2 sec agitation at 60 rpm between data (A600 nm) acquisitions. The experiment was repeated using the luminescent D39LUX strain on a Cytation 5 Cell Imaging Multi-Mode Reader (BioTek) using IsoplateTM-96 F tray PerkinElmer, 6005020). Kill kinetic assays on S. aureus Xen29 was carried out essentially as described for MIC determination on Cytation 5 Cell Imaging Multi-Mode Reader.
# In order to determine the MBC of each compound against S. pneumoniae D39 or S. aureus Xen29, 10 μl aliquots from each duplicate well from the MIC assays (starting from the MIC for each compound) was inoculated onto a HBA plate and incubated at 37°C (+ 5% CO2 for S. pneumoniae D39). Plates were examined at 24 and 48 h and the MBC was recorded as the lowest concentration of each test compound at which a 99.9% colony count reduction was observed on the plate.
# [6] = LogD by gradient HPLC chromatographic method; format: physicochemical; conditions: pH 7.4
# [7] = S3 Table isolates, absence of FBS
smiles,measurement,setting,value
"Cc1ccc(/C=N/Nc2cc(N/N=C/c3ccc(C)cc3)nc(N)n2)cc1 [NCL195, 4,6-bis(2-((E)-4-methylbenzylidene)hydrazinyl)pyrimidin-2-amine]",Effect on cell viability (real-time),[1],no measurable effect on cell viability
same,Effect on generated membrane potential,[2],large reduction in the magnitude of the generated membrane potential
same,Fold increase of MIC range in the presence of 10% FBS,[3],4 fold
same,MIC range,[3]; 20 isolates,2 to 4 µg/mL
same,MIC50,"[3]; S3 Table isolates, 10% FBS",16 µg/mL
same,MIC90,"[3]; S3 Table isolates, 10% FBS",32 µg/mL
same,MIC50,[3]; [7],2 µg/mL
same,MIC90,[3]; [7],4 µg/mL
same,MIC,"[3]; VRE 1 (49 FR), 10% FBS",16 µg/mL
same,MIC,"[3]; VRE 1 (49 FR), absence of FBS",4 µg/mL
same,MIC,"[3]; VRE 2 (53 FR), 10% FBS",16 µg/mL
same,MIC,"[3]; VRE 2 (53 FR), absence of FBS",2 µg/mL
same,MIC,"[3]; VRE 3 (55 FR), 10% FBS",16 µg/mL
same,MIC,"[3]; VRE 3 (55 FR), absence of FBS",2 µg/mL
same,MIC,"[3]; VRE 4 (57 FR), 10% FBS",16 µg/mL
same,MIC,"[3]; VRE 4 (57 FR), absence of FBS",2 µg/mL
same,MIC,"[3]; VRE5 (58 FR), 10% FBS",32 µg/mL
same,MIC,"[3]; VRE5 (58 FR), absence of FBS",4 µg/mL
same,MIC,"[3]; VRE 6 (59 FR), 10% FBS",16 µg/mL
same,MIC,"[3]; VRE 6 (59 FR), absence of FBS",4 µg/mL
same,MIC,"[3]; VRE 7 (270 G), 10% FBS",32 µg/mL
same,MIC,"[3]; VRE 7 (270 G), absence of FBS",4 µg/mL
same,MIC,"[3]; VRE 8 (277 G), 10% FBS",32 µg/mL
same,MIC,"[3]; VRE 8 (277 G), absence of FBS",4 µg/mL
same,MIC,"[3]; VRE 9 (61 FR), 10% FBS",16 µg/mL
same,MIC,"[3]; VRE 9 (61 FR), absence of FBS",4 µg/mL
same,MIC,"[3]; VRE 10 (62 FR), 10% FBS",16 µg/mL
same,MIC,"[3]; VRE 10 (62 FR), absence of FBS",4 µg/mL
same,MIC,"[3]; VRE 11 (284 G), 10% FBS",16 µg/mL
same,MIC,"[3]; VRE 11 (284 G), absence of FBS",4 µg/mL
same,MIC,"[3]; VRE 12 (290 G), 10% FBS",16 µg/mL
same,MIC,"[3]; VRE 12 (290 G), absence of FBS",2 µg/mL
same,MIC,"[3]; VRE 13 (251 G), 10% FBS",16 µg/mL
same,MIC,"[3]; VRE 13 (251 G), absence of FBS",2 µg/mL
same,MIC,"[3]; VRE 14 (252 G), 10% FBS",32 µg/mL
same,MIC,"[3]; VRE 14 (252 G), absence of FBS",2 µg/mL
same,MIC,"[3]; VRE 15 (63 FR), 10% FBS",16 µg/mL
same,MIC,"[3]; VRE 15 (63 FR), absence of FBS",2 µg/mL
same,MIC,"[3]; VRE 16 (60 FR), 10% FBS",16 µg/mL
same,MIC,"[3]; VRE 16 (60 FR), absence of FBS",2 µg/mL
same,MIC,"[3]; VRE 17 (45 FR), 10% FBS",32 µg/mL
same,MIC,"[3]; VRE 17 (45 FR), absence of FBS",2 µg/mL
same,MIC,"[3]; VRE 18 (69 W), 10% FBS",16 µg/mL
same,MIC,"[3]; VRE 18 (69 W), absence of FBS",2 µg/mL
same,MIC,"[3]; VRE 19 (70 W), 10% FBS",16 µg/mL
same,MIC,"[3]; VRE 19 (70 W), absence of FBS",2 µg/mL
same,MIC,"[3]; VRE 20 (78 W), 10% FBS",32 µg/mL
same,MIC,"[3]; VRE 20 (78 W), absence of FBS",4 µg/mL
same,MIC range,"[3]; S3 Table isolates, 10% FBS",16 to 32 µg/mL
same,MIC range,[3]; [7],2 to 4 µg/mL
same,50% haemolysis titre (HC50),[4],> 128 µg/mL
same,MBC,[5],2 µg/mL
same,chromatographic logD,[6],4.5
"C/C(=N\NC(=N)N/N=C(\C)c1ccc(C(C)(C)C)cc1)c1ccc(C(C)(C)C)cc1 [NCL219, (E)-N'-((E)-1-(4-(tert-butyl)phenyl)ethylidene)-2-(1-(4-(tert-butyl)phenyl)ethylidene)hydrazine-1-carboximidhydrazide]",Effect on cell viability (real-time),[1],had a demonstrable effect on viability at 2 μg/ml
same,Effect on generated membrane potential,[2],large reduction in the magnitude of the generated membrane potential
same,Fold increase of MIC range in the presence of 10% FBS,[3],8 fold
same,MIC range,[3]; 20 isolates,1 to 2 µg/mL
same,MIC50,"[3]; S3 Table isolates, 10% FBS",8 µg/mL
same,MIC90,"[3]; S3 Table isolates, 10% FBS",16 µg/mL
same,MIC50,[3]; [7],2 µg/mL
same,MIC90,[3]; [7],2 µg/mL
same,MIC,"[3]; VRE 1 (49 FR), 10% FBS",16 µg/mL
same,MIC,"[3]; VRE 1 (49 FR), absence of FBS",2 µg/mL
same,MIC,"[3]; VRE 2 (53 FR), 10% FBS",8 µg/mL
same,MIC,"[3]; VRE 2 (53 FR), absence of FBS",2 µg/mL
same,MIC,"[3]; VRE 3 (55 FR), 10% FBS",8 µg/mL
same,MIC,"[3]; VRE 3 (55 FR), absence of FBS",2 µg/mL
same,MIC,"[3]; VRE 4 (57 FR), 10% FBS",8 µg/mL
same,MIC,"[3]; VRE 4 (57 FR), absence of FBS",2 µg/mL
same,MIC,"[3]; VRE5 (58 FR), 10% FBS",8 µg/mL
same,MIC,"[3]; VRE5 (58 FR), absence of FBS",2 µg/mL
same,MIC,"[3]; VRE 6 (59 FR), 10% FBS",8 µg/mL
same,MIC,"[3]; VRE 6 (59 FR), absence of FBS",2 µg/mL
same,MIC,"[3]; VRE 7 (270 G), 10% FBS",16 µg/mL
same,MIC,"[3]; VRE 7 (270 G), absence of FBS",2 µg/mL
same,MIC,"[3]; VRE 8 (277 G), 10% FBS",8 µg/mL
same,MIC,"[3]; VRE 8 (277 G), absence of FBS",1 µg/mL
same,MIC,"[3]; VRE 9 (61 FR), 10% FBS",8 µg/mL
same,MIC,"[3]; VRE 9 (61 FR), absence of FBS",1 µg/mL
same,MIC,"[3]; VRE 10 (62 FR), 10% FBS",16 µg/mL
same,MIC,"[3]; VRE 10 (62 FR), absence of FBS",1 µg/mL
same,MIC,"[3]; VRE 11 (284 G), 10% FBS",8 µg/mL
same,MIC,"[3]; VRE 11 (284 G), absence of FBS",2 µg/mL
same,MIC,"[3]; VRE 12 (290 G), 10% FBS",8 µg/mL
same,MIC,"[3]; VRE 12 (290 G), absence of FBS",2 µg/mL
same,MIC,"[3]; VRE 13 (251 G), 10% FBS",8 µg/mL
same,MIC,"[3]; VRE 13 (251 G), absence of FBS",2 µg/mL
same,MIC,"[3]; VRE 14 (252 G), 10% FBS",8 µg/mL
same,MIC,"[3]; VRE 14 (252 G), absence of FBS",2 µg/mL
same,MIC,"[3]; VRE 15 (63 FR), 10% FBS",8 µg/mL
same,MIC,"[3]; VRE 15 (63 FR), absence of FBS",2 µg/mL
same,MIC,"[3]; VRE 16 (60 FR), 10% FBS",8 µg/mL
same,MIC,"[3]; VRE 16 (60 FR), absence of FBS",2 µg/mL
same,MIC,"[3]; VRE 17 (45 FR), 10% FBS",8 µg/mL
same,MIC,"[3]; VRE 17 (45 FR), absence of FBS",2 µg/mL
same,MIC,"[3]; VRE 18 (69 W), 10% FBS",8 µg/mL
same,MIC,"[3]; VRE 18 (69 W), absence of FBS",2 µg/mL
same,MIC,"[3]; VRE 19 (70 W), 10% FBS",8 µg/mL
same,MIC,"[3]; VRE 19 (70 W), absence of FBS",2 µg/mL
same,MIC,"[3]; VRE 20 (78 W), 10% FBS",8 µg/mL
same,MIC,"[3]; VRE 20 (78 W), absence of FBS",2 µg/mL
same,MIC range,"[3]; S3 Table isolates, 10% FBS",8 to 16 µg/mL
same,MIC range,[3]; [7],1 to 2 µg/mL
same,50% haemolysis titre (HC50),[4],6 µg/mL
same,MBC,[5],16 µg/mL
same,chromatographic logD,[6],> 5.3
